Common to all, as to format: biochemical
In one test the target is Pim-1 (Homo sapiens (Human), UniProt P11309). In words: Pim-1 kinase assay. As to conditions: 1 mM ATP, biotin-labeled BAD peptide substrate; read-out: Pim1 IC50. A digest of the protocol:
(§1)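 Biotin-BAD peptide ([…]) phosphorylated with 1 mM ATP by 2.5 pM Pim-1 or 1.25 pM Pim-3, 1 h at 25 °C in Tris pH 7.5, MgCl2, DTT buffer. EDTA stop with anti-phospho-BAD (Ser112) antibody and AlphaScreen streptavidin donor/Protein-A acceptor beads; signal read after 1 h dark incubation.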

The target of a further test is Pim-2 (Homo sapiens (Human), UniProt Q9P1W9). In words: Pim-2 kinase assay. As to conditions: 1 mM ATP, fluorescein-labeled CREBtide peptide substrate; read-out: Pim2 IC50. A digest of the protocol:
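Phosphorylated CREBtide was detected by terbium anti-pSer133 antibody TR-FRET after EDTA quench and 30 min at room temperature. Reactions ran 2 h at 25 °C with 1 mM ATP, 0.05 μM fluorescein-labelled substrate and 1 nM enzyme in pH 7.5 Tris buffer.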

The target in a further test is Pim-3 (Homo sapiens (Human), UniProt Q86V86). In words: Pim-3 kinase assay. The following applies: 1 mM ATP, biotin-labeled BAD peptide substrate; read-out: Pim3 IC50. The procedure, abridged: as §1

Pim-1, sequence (P11309 whole entry): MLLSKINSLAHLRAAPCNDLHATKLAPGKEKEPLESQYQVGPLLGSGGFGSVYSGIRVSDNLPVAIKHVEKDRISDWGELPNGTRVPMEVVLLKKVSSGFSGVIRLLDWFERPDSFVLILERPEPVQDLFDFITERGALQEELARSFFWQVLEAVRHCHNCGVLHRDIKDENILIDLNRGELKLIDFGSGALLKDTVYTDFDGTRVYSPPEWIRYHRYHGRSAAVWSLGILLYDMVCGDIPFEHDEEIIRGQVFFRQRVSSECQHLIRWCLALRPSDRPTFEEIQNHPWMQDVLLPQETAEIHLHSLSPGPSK
Pim-2, sequence (Q9P1W9 whole entry): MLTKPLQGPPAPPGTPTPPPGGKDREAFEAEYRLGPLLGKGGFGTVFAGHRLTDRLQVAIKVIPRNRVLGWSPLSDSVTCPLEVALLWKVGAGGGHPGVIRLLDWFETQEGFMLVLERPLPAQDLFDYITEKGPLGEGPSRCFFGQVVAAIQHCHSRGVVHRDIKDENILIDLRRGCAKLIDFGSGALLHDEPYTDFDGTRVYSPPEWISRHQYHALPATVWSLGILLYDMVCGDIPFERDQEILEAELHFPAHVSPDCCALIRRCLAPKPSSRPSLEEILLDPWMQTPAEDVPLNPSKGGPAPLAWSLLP

The IC50 is the midpoint of a concentration-inhibition curve. Take `CC(C)c1cnc2c(C(=O)Nc3cnccc3[C@@H]3C[C@H](C)C[C@H](N)C3)c(N)oc2c1` [Example 130, 2-Amino-N-{4-[(1R,3S,5S)-3-amino-5-methylcyclohexyl]pyridin-3-yl}-6-isopropylfuro[3,2-b]pyridine-3-carboxamide]: the IC50 on Pim-1, on Pim-2 and on Pim-3 was at most 10 nM throughout.
`COCCCc1cnc2c(C(=O)Nc3cnccc3N3C[C@@H](N)C[C@@H](C(F)(F)F)C3)c(N)oc2c1` [Example 131, 2-Amino-N-{4-[(3S,5R)-3-amino-5-(trifluoromethyl)piperidin-1-yl]pyridin-3-yl}-6-(3-methoxypropyl)furo[3,2-b]pyridine-3-carboxamide]: the IC50 on Pim-1, on Pim-2 and on Pim-3 was at most 10 nM each time.
Consider `Nc1oc2cc(CCCN3CCOCC3)cnc2c1C(=O)Nc1cnccc1N1C[C@@H](N)C[C@@H](C(F)(F)F)C1` [Example 132, 2-Amino-N-{4-[(3S,5R)-3-amino-5-(trifluoromethyl)piperidin-1-yl]pyridin-3-yl}-6-(3-morpholin-4-ylpropyl)furo[3,2-b]pyridine-3-carboxamide], for which the IC50 at Pim-1, at Pim-2 and at Pim-3 was at most 10 nM throughout.
Consider `C[C@@H]1C[C@H](N)C[C@H](c2ccncc2NC(=O)c2c(N)oc3cc(C4CC4)cnc23)C1` [Example 133, 2-Amino-N-{4-[(1R,3S,5S)-3-amino-5-methylcyclohexyl]pyridin-3-yl}-6-cyclopropylfuro[3,2-b]pyridine-3-carboxamide], for which the IC50 at Pim-1, on Pim-2 and at Pim-3 was at most 10 nM each time.
In the case of `COCCCc1cnc2c(C(=O)Nc3cnccc3N3C[C@H](C)C[C@H](N)C3)c(N)oc2c1` [Example 134, 2-Amino-N-{4-[(3S,5R)-3-amino-5-methylpiperidin-1-yl]pyridin-3-yl}-6-(3-methoxypropyl)furo[3,2-b]pyridine-3-carboxamide], the concentration for half-maximal inhibition (IC50) at Pim-1, at Pim-2 and on Pim-3 was at most 10 nM throughout.
As to `CN(C)CCCc1cnc2c(C(=O)Nc3cnccc3N3C[C@@H](N)C[C@@H](C(F)(F)F)C3)c(N)oc2c1` [Example 135, 2-Amino-N-{4-[(3S,5R)-3-amino-5-(trifluoromethyl)piperidin-1-yl]pyridin-3-yl}-6-[3-(dimethylamino)propyl]furo[3,2-b]pyridine-3-carboxamide], the IC50 is at most 10 nM at Pim-1, 10 to 100 nM at Pim-2 and at most 10 nM at Pim-3.
Consider `Nc1oc2cccnc2c1C(=O)Nc1cnccc1[C@H]1C[C@@H](N)C[C@@H](C(F)(F)F)C1` [Example 136, 2-Amino-N-{4-[(1R,3R,5S)-3-amino-5-(trifluoromethyl)cyclohexyl]pyridin-3-yl}furo[3,2-b]pyridine-3-carboxamide], for which the IC50 on Pim-1 is at most 10 nM; on Pim-2, 10 to 100 nM; on Pim-3, at most 10 nM.
On to `C[C@H]1CN(c2ccncc2NC(=O)c2c(N)oc3cc(CCCF)cnc23)C[C@@H](N)[C@@H]1O` [Example 137, 2-Amino-N-(4-((3R,4R,5S)-3-amino-4-hydroxy-5-methylpiperidin-1-yl)pyridin-3-yl)-6-(3-fluoropropyl)furo[3,2-b]pyridine-3-carboxamide], for which the 50% inhibitory concentration (IC50) on Pim-1, on Pim-2 and at Pim-3 was at most 10 nM each time.
Turning to `Nc1oc2cc(CCN3CC[C@@H](F)C3)cnc2c1C(=O)Nc1cnccc1N1C[C@@H](N)C[C@@H](C(F)(F)F)C1` [Example 138, 2-Amino-N-{4-[(3S,5R)-3-amino-5-(trifluoromethyl)piperidin-1-yl]pyridin-3-yl}-6-{2-[(3R)-3-fluoropyrrolidin-1-yl]ethyl}furo[3,2-b]pyridine-3-carboxamide], the half-inhibitory concentration (IC50) at Pim-1, at Pim-2 and at Pim-3 was at most 10 nM in each case.
As for `CC(C)c1cnc2c(C(=O)Nc3cnccc3N3C[C@@H](N)[C@H](O)[C@@H](C)C3)c(N)sc2c1` [Example 139, 2-Amino-N-(4-((3R,4R,5S)-3-amino-4-hydroxy-5-methylpiperidin-1-yl)pyridin-3-yl)-6-isopropylthieno[3,2-b]pyridine-3-carboxamide], the IC50 at Pim-1, on Pim-2 and at Pim-3 was at most 10 nM each time.
Consider `CCCc1cnc2c(C(=O)Nc3cnccc3N3C[C@@H](N)[C@H](O)[C@@H](C)C3)c(N)sc2c1` [Example 140, 2-Amino-N-(4-((3R,4R,5S)-3-amino-4-hydroxy-5-methylpiperidin-1-yl)pyridin-3-yl)-6-propylthieno[3,2-b]pyridine-3-carboxamide], for which the 50% inhibitory concentration (IC50) at Pim-1, on Pim-2 and on Pim-3 was at most 10 nM throughout.
Regarding `CC(=O)Nc1cnc2c(C(=O)Nc3cnccc3N3C[C@@H](N)[C@H](O)[C@@H](C)C3)c(N)sc2c1` [Example 141, 6-(Acetylamino)-2-amino-N-{4-[(3R,4R,5S)-3-amino-4-hydroxy-5-methylpiperidin-1-yl]pyridin-3-yl}thieno[3,2-b]pyridine-3-carboxamide], the figures for the IC50 at Pim-1, at Pim-2 and on Pim-3 were at most 10 nM, 10 to 100 nM and at most 10 nM, respectively.
For `C[C@H]1CN(c2ccncc2NC(=O)c2c(N)sc3cc(NC(=O)C4CC4)cnc23)C[C@@H](N)[C@@H]1O` [Example 142, 2-Amino-N-(4-((3R,4R,5S)-3-amino-4-hydroxy-5-methylpiperidin-1-yl)pyridin-3-yl)-6-(cyclopropanecarboxamido)thieno[3,2-b]pyridine-3-carboxamide], the figures for the IC50 on Pim-1, at Pim-2 and on Pim-3 were at most 10 nM, 10 to 100 nM and at most 10 nM, respectively.
Regarding `CC(C)C(=O)Nc1cnc2c(C(=O)Nc3cnccc3N3C[C@@H](N)[C@H](O)[C@@H](C)C3)c(N)sc2c1` [Example 143, 2-Amino-N-(4-((3R,4R,5S)-3-amino-4-hydroxy-5-methylpiperidin-1-yl)pyridin-3-yl)-6-isobutyramidothieno[3,2-b]pyridine-3-carboxamide], the IC50 on Pim-1 is at most 10 nM; on Pim-2 it was 10 to 100 nM; on Pim-3 it was at most 10 nM.
With `Nc1sc2cc(N3CCOCC3)cnc2c1C(=O)Nc1cnccc1N1C[C@@H](N)C[C@@H](C(F)(F)F)C1` [Example 144, 2-Amino-N-(4-((3S,5R)-3-amino-5-(trifluoromethyl)piperidin-1-yl)pyridin-3-yl)-6-morpholinothieno[3,2-b]pyridine-3-carboxamide], the IC50 on Pim-1 is at most 10 nM; on Pim-2 it was 10 to 100 nM; on Pim-3 it was at most 10 nM.

The values are drawn from patent publication US10000507B2, “Furo- and thieno-pyridine carboxamide compounds useful as pim kinase inhibitors” (Incyte Corporation, priority 2013, dated 2018).
